Experimental data: US5705523A, “Pyridine- and imidazole-derived agents for cardiovascular diseases” (Pfizer Inc., priority 1991, dated 1998)

Assays:
PGI2 synthetase = settings: pre-incubation with pig aorta microsomes; result in words; cited from earlier work
thromboxane A2 receptor = molecular target: T1, thromboxane A2 receptor (Rattus norvegicus, UniProt P34978); test: Thromboxane A2 receptor antagonism (U-46619 contraction of rat aortic strips); assay type: cell-based; settings: agonist U-46619, in vitro, read-out: T×A2 antagonist activity: pA2 (converted)
T1 construct: Spirally cut rat aortic strips; from tissue; host or cells: rat aorta (spirally cut strips)
T1 sequence (P34978 1-341): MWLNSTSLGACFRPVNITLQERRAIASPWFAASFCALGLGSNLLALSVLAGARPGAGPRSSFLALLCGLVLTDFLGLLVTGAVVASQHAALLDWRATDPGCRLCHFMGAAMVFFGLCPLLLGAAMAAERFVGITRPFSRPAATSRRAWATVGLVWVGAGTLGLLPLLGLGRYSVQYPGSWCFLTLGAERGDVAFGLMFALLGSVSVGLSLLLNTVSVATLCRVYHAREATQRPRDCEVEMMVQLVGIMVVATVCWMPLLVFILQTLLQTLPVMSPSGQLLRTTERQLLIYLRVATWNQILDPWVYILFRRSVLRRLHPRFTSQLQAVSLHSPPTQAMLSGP
Protocol: Spirally cut rat aortic strips, mounted for isometric tension recording in 20 ml organ baths, are bathed in Krebs-bicarbonate solution at 37° C. Following an incubation period of 2 hours under 1 gram resting tension, the tissues are pre-treated with U-46619 (a thromboxane A2 receptor agonist) for 10 minutes, then washed and the tissues allowed to equilibrate for a further 1 hour. Cumulative doses of U-46619 over the range 1 nM-100 nM are sequentially included in the bathing fluid and increases in the tissue tension noted.
The test compounds are incubated with the tissue for 15 minutes prior to repeating the cumulative dosing of U-46619 and the ability of the compound to antagonize the thromboxane A2 receptor is determined from the dose-response curves for U-46619 in the presence of varied concentrations of the test compound.

[1] = molecular target: T2, thromboxane A2 synthetase (Homo sapiens, UniProt P24557); test: Thromboxane A2 (T×A2) synthetase inhibition (T×B2 production, radioimmunoassay); assay type: biochemical; settings: human platelet microsomes, in vitro; read-out: T×A2 synthetase inhibitory activity: IC50
T2 construct: Indomethacin pretreated human platelet microsomes; from tissue; host or cells: human platelets (microsomes)
T2 sequence (P24557 1-533): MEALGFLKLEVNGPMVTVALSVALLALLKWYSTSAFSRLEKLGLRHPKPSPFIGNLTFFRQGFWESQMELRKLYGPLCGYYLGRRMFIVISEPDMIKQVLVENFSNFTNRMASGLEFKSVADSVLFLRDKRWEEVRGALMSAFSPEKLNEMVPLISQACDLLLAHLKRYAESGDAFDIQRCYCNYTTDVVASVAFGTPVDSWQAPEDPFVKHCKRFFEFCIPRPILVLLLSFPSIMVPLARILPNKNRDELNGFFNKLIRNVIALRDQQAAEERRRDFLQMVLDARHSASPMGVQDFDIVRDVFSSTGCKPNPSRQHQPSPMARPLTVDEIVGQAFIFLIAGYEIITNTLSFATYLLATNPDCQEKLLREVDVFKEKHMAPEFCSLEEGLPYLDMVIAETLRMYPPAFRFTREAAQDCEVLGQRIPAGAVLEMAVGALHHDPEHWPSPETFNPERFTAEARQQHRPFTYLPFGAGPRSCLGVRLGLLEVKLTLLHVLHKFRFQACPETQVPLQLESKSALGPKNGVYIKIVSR
Protocol: Ram seminal vesicle microsomes (Biochemistry, 1971, 10, 2372) are incubated with arachidonic acid (100.0 μM) for 1.0 minute at 22° C. to produce endoperoxide (PGH2). Aliquots of PGH2 are incubated for 30 seconds at 22° C. with pig aorta microsomes (Nature, 1976, 263, 663) and the reaction terminated with five volumes of ethanol. PGI2 production is assessed by measuring its stable breakdown product 6-keto-PGF1α, using a specific radioimmunoassay.
Indomethacin pretreated human platelet microsomes (Science 1976, 193, 163) are incubated for 2 minutes at 0° C. with PGH2 (produced as in 1) and the reaction terminated with 5 volumes of ethanol. T×A2 production is assessed by measuring its stable metabolite T×B2,using a specific radioimmunoassay.
The test compound is pre-incubated with enzyme for 5 minutes, and its ability to inhibit the thromboxane A2 synthetase enzyme is measured as the reduction of T×A2 (T×B2) production.

Structure (SMILES)	Kb (thromboxane A2 receptor) [nM]	IC50 [1] [nM]	inhibition of PGI2 production by PGI2 synthetase (PGI2 synthetase)
CCCCCC(/C=C/C=C\C/C=C\C/C=C\CCCC(=O)O)OO (stereo not shown) [15-hydroperoxyarachidonic acid]			completely inhibited
O=C(O)CCc1cc(CCNS(=O)(=O)c2ccc(Cl)cc2)cc(Cc2cccnc2)c1 [Example 48, 3-{3-[2-(4-Chlorophenylsulphonylamino)ethyl]-5-(3-pyridylmethyl)phenyl}propanoic acid]	0.407	39	
O=C(O)CCc1cc(CCNS(=O)(=O)c2ccc(Br)cc2)cc(Cc2cccnc2)c1 [Example 49, 3-{3-[2-(4-Bromophenylsulphonylamino)ethyl]-5-(3-pyridylmethyl)phenyl}propanoic acid]	0.363	49	
CC(O)(c1cccnc1)c1cc(CCNS(=O)(=O)c2ccc(Cl)cc2)cc(CCC(=O)O)c1 (stereo not shown) [Example 67]	0.851	61	
C=C(c1cccnc1)c1cc(CCNS(=O)(=O)c2ccccc2)cc(CCC(=O)O)c1 [Example 82, 3-{3-(2-Phenylsulphonylamino)ethyl-5-[1-(3-pyridyl)ethenyl]phenyl}propanoic acid]	0.759	50	
C=C(c1cccnc1)c1cc(CCNS(=O)(=O)c2ccc(Cl)cc2)cc(CCC(=O)O)c1 [Example 83, 3-{3-[2-(4-Chlorophenylsulphonylamino)ethyl]-5-[1-(3-pyridyl)ethenyl]phenyl}propanoic acid]	0.0977	53	
CC(c1cccnc1)c1cc(CCNS(=O)(=O)c2ccccc2)cc(CCC(=O)O)c1 (stereo not shown) [Example 84, 3-{3-(2-Phenylsulphonylamino)ethyl-5-[1-(3-pyridyl)ethyl]phenyl}propanoic acid]	0.186	44	

Further lines, with some results ahead:

Kb (thromboxane A2 receptor) [nM]	IC50 [1] [nM]	Structure (SMILES)	inhibition of PGI2 production by PGI2 synthetase (PGI2 synthetase)
0.871	38	O=C(O)CCc1cc(CCNS(=O)(=O)c2ccccc2)cc(Oc2cccnc2)c1 [Example 61, 3-[3(2-Phenylsulphonylamino)ethyl-5-(3-pyridyloxy)phenyl]propanoic acid]	
0.398	37	O=C(O)CCc1cc(CCNS(=O)(=O)c2ccc(Cl)cc2)cc(Oc2cccnc2)c1 [Example 62, 3-{3-[2-(4-Chlorophenylsulphonylamino)ethyl]-5-(3-pyridyloxy)phenyl}propanoic acid]	
0.0692	38	CC(c1cccnc1)c1cc(CCNS(=O)(=O)c2ccc(Cl)cc2)cc(CCC(=O)O)c1 (stereo not shown) [Example 85, 3-{3-[2-(4-Chlorophenylsulphonylamino)ethyl]-5-[1-(3-pyridyl)ethyl]phenyl}propanoic acid]	
